According to US12275731B2, “Azaindole inhibitors of wild-type and mutant forms of LRRK2” (DANA-FARBER CANCER INSTITUTE, INC., priority 2018, dated 2025):

How the values were obtained:
DRAK1 = target: T1, DRAK1 (Homo sapiens, UniProt Q9UEE5); assay: KinomeScan profiling; format: binding; conditions: DRAK1, 1 μM; read-out: % control
T1 sequence (Q9UEE5 1-414): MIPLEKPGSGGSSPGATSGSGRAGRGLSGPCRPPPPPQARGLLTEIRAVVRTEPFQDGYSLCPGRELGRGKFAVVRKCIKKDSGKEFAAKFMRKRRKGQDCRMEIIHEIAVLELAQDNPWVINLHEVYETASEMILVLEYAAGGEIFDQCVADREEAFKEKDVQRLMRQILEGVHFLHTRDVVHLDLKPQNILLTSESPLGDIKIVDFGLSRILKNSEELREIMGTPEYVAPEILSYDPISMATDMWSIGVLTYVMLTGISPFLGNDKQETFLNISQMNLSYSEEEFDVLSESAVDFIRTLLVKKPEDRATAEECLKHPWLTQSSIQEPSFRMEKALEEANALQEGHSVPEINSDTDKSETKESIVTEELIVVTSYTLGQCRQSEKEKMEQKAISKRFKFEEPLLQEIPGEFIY
Method in brief: (§1)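 Percent-of-control values derive from RLU, calculated as (test − positive)/(negative − positive) × 100, where DMSO defines 100% and a positive control compound defines 0%. Each compound was tested at 1 μM in the 468-kinase panel; sub-35% readings indicate activity.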

EPHB4 = target: T2, EPHB4 (Homo sapiens, UniProt P54760); assay: KinomeScan profiling; format: binding; conditions: EPHB4, 1 μM; read-out: % control
T2 sequence (P54760 16-987): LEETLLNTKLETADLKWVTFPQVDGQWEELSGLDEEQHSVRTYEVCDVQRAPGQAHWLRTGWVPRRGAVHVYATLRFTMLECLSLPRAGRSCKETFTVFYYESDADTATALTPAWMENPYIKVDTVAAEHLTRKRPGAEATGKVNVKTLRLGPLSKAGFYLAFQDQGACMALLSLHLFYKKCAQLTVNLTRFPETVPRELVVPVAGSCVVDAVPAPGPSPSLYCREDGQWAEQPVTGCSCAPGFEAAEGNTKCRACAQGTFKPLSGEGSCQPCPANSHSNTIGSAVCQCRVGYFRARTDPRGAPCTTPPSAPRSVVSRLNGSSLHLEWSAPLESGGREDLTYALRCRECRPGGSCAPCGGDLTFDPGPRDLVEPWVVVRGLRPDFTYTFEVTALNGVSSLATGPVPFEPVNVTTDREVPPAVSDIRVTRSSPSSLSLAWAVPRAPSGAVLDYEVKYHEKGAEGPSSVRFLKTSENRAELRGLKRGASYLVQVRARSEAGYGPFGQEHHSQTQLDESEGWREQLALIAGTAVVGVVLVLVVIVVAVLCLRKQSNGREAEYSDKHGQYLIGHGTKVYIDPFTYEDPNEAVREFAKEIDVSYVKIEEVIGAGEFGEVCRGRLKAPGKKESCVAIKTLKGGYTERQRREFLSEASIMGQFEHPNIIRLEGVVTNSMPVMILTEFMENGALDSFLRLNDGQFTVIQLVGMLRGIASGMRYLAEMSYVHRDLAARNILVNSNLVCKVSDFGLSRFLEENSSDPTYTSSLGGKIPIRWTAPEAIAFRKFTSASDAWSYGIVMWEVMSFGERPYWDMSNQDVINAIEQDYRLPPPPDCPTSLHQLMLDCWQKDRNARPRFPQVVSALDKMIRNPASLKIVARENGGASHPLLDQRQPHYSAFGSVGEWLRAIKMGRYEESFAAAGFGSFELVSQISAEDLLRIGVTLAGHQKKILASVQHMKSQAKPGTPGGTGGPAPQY
Method in brief: as §1

SMILES: O=C(c1ccc(-c2cnc3[nH]cc(Cl)c3c2NC2CCCC2)cc1)N1CCC(N2CCOCC2)CC1 [Compound 101, (4-(3-chloro-4-(cyclopentylamino)-1H-pyrrolo[2,3-b]pyridin-5-yl)phenyl)(4-morpholinopiperidin-1-yl)methanone]
- remaining binding at 1 µM (DRAK1): 100%
- remaining binding at 1 µM (EPHB4): 62%

SMILES: CNc1c(-c2cnn([C@H]3CCN(C(C)=O)C[C@@H]3F)c2)cnc2[nH]cc(Cl)c12 [Compound 77, 1-((3S,4S)-4-(4-(3-chloro-4-(methylamino)-1H-pyrrolo[2,3-b]pyridin-5-yl)-1H-pyrazol-1-yl)-3-fluoropiperidin-1-yl)ethan-1-one]
- remaining binding at 1 µM (DRAK1): 81%
- remaining binding at 1 µM (EPHB4): 100%

SMILES: CNc1c(-c2ccc(C(=O)N3CCC(N4CCOCC4)CC3)cc2)cnc2[nH]cc(Cl)c12 [Compound 96, (4-(3-chloro-4-(methylamino)-1H-pyrrolo[2,3-b]pyridin-5-yl)phenyl)(4-morpholinopiperidin-1-yl)methanone]
- remaining binding at 1 µM (DRAK1): 56%
- remaining binding at 1 µM (EPHB4): 100%
